Reference: article PMC8920097, “Prediction of hERG inhibition of drug discovery compounds using biomimetic HPLC measurements” (ADMET & DMPK, 2021)
Read-outs that look alike come from different tables or passages of the source.

How the values were obtained:
hERG channel = conditions: literature values, mean where several reported, molar; cited from earlier work
[1] = target: human serum albumin (HSA) (Homo sapiens, UniProt P02768); experiment: Protein binding on Chiralpak HSA HPLC column; conditions: pH 7.4, Chiralpak HSA
Method: The measurement of the biomimetic properties of the available drugs was conducted in our laboratories. Generic gradient HPLC methods were used to determine the chromatographic hydrophobicity Index (CHI) using mobile phases at three different pH values. The protein binding of the compounds was measured using immobilised human serum albumin (HSA), and alpha-1-acid-glycoprotein (AGP) stationary phases. The phospholipid-binding was measured using the immobilised artificial membrane (IAM) stationary phase. The aim was to establish relationships between the cardiotoxicity potential and the biomimetic binding properties of the drugs and to evaluate their predictive performance.

[2] = system: alpha-1-acid-glycoprotein (AGP); experiment: Protein binding on Chiralpak AGP HPLC column; conditions: pH 7.4, Chiralpak AGP
How it was run: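 Binding measured by gradient HPLC on immobilised HSA or AGP stationary phases.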

[3] = CHI lipophilicity by gradient reversed-phase HPLC (Gemini NX-C-18)
How it was run: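 Calibrated gradient retention times came from a 50 x 3 mm, 5 μm C-18 column run with a 0–100% linear acetonitrile gradient. A standard compound set converted these times to CHI values.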

[4] = Phospholipid binding at pH 7.4 on IAM PC.DD2 HPLC column; format: physicochemical; design: key to CHI IAM: approximates acetonitrile concentration (%) in mobile phase at elution; conditions: for log k IAM: pH 7.4, derived from CHI IAM by equation 1
How it was run: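 Gradient retention on IAM PC.DD2 column (100 x 4.6 mm) with 50 mM ammonium acetate pH 7.4, 1.5 mL/min, 6 min cycle. Retention calibrated against acetophenone homologues to give CHI IAM (approximate acetonitrile concentration at elution), converted to log k IAM by equation.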

[5] = Charge character of the drugs at pH 7.4; format: physicochemical
HSA [6] = conditions: calibration set; log k = log (%binding/(101-%binding)) from literature % binding
AGP [7] = experiment: Literature % binding to AGP by equilibrium dialysis (calibration set); conditions: log k = log (%binding/(101-%binding)) from literature % binding
HSA [8] = conditions: calibration set; equilibrium dialysis; literature; cited from earlier work
AGP [9] = conditions: calibration set; equilibrium dialysis; literature; cited from earlier work
[10] = design: method as in doi:10.5599/admet.5.1.373; conditions: calibration set; predetermined by isocratic measurements; cited from earlier work
AGP [11] = system: AGP

Chain of human serum albumin (HSA) (P02768 25-609): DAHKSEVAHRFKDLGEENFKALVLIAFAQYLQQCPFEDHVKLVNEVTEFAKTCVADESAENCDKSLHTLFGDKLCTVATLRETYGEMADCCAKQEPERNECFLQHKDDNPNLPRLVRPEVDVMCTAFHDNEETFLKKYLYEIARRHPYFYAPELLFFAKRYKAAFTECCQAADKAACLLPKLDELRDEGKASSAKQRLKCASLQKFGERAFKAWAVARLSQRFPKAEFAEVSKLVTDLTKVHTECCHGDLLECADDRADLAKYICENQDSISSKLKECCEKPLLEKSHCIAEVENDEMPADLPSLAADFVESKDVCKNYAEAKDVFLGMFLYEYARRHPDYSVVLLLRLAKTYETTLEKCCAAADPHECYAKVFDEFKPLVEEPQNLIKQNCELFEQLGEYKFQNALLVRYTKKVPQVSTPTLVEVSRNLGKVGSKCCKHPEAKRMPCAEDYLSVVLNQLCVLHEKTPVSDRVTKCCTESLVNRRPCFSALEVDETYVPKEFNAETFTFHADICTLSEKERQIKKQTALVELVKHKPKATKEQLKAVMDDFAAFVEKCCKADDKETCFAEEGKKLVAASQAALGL

| log k HSA [1] | log k AGP [2] | chromatographic logD ([3]; Gemini NX-C-18 reversed-phase HPLC column, pH 7.4) | chromatographic logP ([3]; reversed-phase HPLC, Gemini NX-C-18 column (50 x 3 mm, 5 µm)) | CHI IAM ([4]; pH 7.4) | log k IAM [4] | Charge [5] | log k HSA (HSA [6]) | log k AGP (AGP [7]) | log k AGP (AGP [11]) | SMILES | hERG pIC50 (hERG channel) | %HSA (HSA [8]) [%] | % AGP (AGP [9]) [%] | CHI IAM [10] |
| --- | --- | --- | --- | --- | --- | --- | --- | --- | --- | --- | --- | --- | --- | --- |
| 0.07 | -0.85 | 1.22 | 1.33 | 23.98 | 1.53 | Neutral | 0.5 | 0.3 |  | NC(=O)N1c2ccccc2C=Cc2ccccc21 [Carbamazepine] | 3.98 | 75.0 | 65.0 |  |
|  |  |  |  |  |  |  | -0.8 | -1.5 |  | CC(=O)Nc1ccc(O)cc1 [Paracetamol] |  | 14.0 | 3.2 | 2.9 |
| -0.05 | -0.07 |  |  |  | 1.01 |  | -0.2 | -0.1 |  | COc1cc(Cc2cnc(N)nc2N)cc(OC)c1OC [Trimethoprim] | 3.62 | 37.6 | 46.2 |  |
|  |  |  |  |  |  |  | 1.5 |  | 0.7 | CC(=O)CC(c1ccccc1)c1c(O)c2ccccc2oc1=O (stereo not shown) [Warfarin] |  |  | 83.2 |  |
